Experimental data taken from ChEMBL document CHEMBL1145401, “Design and synthesis of classical and nonclassical 6-arylthio-2,4-diamino-5-ethylpyrrolo[2,3-d]pyrimidines as antifolates” (J Med Chem, 2007).

Tests used:
[1] = biological target: T1, Dihydrofolate reductase (Homo sapiens, UniProt P00374); assay: Inhibition of human DHFR relative to control; settings: concentration not given here
[2] = Inhibition of Escherichia coli DHFR
[3] = Selectivity ratio of IC50 for human DHFR to IC50 for Escherichia coli DHFR
[4] = Selectivity ratio of IC50 for rat liver DHFR to IC50 for Pneumocystis carinii DHFR
[5] = Selectivity ratio of IC50 for rat liver DHFR to IC50 for Mycobacterium avium DHFR
[6] = biological target: T1, Dihydrofolate reductase
[7] = biological target: T2, Dihydrofolate reductase (Pneumocystis carinii, UniProt P16184)
T2 sequence (P16184 whole entry): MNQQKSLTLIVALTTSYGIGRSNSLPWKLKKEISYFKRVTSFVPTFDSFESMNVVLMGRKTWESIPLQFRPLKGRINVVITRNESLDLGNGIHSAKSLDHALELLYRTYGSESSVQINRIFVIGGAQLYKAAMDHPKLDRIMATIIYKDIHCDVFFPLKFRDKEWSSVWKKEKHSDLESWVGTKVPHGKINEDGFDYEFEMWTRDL
Description: Inhibition of Pneumocystis carinii DHFR

[8] = biological target: T3, Bifunctional dihydrofolate reductase-thymidylate synthase (Toxoplasma gondii, UniProt Q07422)
T3 sequence (Q07422 whole entry): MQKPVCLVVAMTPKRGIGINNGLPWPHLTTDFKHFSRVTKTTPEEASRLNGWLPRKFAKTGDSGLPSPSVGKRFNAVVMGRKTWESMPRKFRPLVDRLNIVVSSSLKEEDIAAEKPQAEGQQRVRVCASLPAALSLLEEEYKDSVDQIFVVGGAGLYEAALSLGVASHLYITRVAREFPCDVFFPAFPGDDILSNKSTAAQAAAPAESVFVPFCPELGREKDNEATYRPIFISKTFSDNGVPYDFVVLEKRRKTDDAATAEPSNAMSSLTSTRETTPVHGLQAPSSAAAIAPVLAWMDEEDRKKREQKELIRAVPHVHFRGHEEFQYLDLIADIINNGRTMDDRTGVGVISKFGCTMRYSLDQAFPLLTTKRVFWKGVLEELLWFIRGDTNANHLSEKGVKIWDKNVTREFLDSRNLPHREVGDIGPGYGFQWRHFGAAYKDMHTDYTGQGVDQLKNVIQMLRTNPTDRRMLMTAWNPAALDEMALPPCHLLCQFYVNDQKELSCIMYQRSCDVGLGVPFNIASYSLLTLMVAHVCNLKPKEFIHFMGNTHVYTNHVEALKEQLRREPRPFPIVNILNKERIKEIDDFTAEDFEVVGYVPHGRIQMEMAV
Description: Inhibition of Toxoplasma gondii DHFR

[9] = biological target: T4, Dihydrofolate reductase (Mycobacterium avium, UniProt O30463)
T4 sequence (O30463 whole entry): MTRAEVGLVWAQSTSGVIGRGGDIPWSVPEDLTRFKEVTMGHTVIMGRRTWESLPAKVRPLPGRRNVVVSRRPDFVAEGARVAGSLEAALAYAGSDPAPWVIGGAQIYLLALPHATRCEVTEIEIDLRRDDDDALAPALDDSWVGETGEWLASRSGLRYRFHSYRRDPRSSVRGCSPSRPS
Description: Inhibition of Mycobacterium avium DHFR

[10] = biological target: T5, Dihydrofolate reductase (Rattus norvegicus, UniProt Q920D2)
T5 sequence (Q920D2 whole entry): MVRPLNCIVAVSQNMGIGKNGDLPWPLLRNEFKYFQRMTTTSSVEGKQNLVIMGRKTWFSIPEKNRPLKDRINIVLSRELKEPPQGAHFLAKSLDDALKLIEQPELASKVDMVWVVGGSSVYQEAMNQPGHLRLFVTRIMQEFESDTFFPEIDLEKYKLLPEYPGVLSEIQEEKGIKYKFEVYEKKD
Description: Inhibition of rat liver DHFR

[11] = test system: CCRF-CEM; assay: Effect on growth of human CCRF-CEM cells at 40 nM in presence of 10 uM deoxycytidine relative to control; type: functional
[12] = test system: CCRF-CEM; assay: Effect on growth of human CCRF-CEM cells at 40 nM in presence of 10 uM deoxycytidine, 5 uM thymidine relative to control; type: functional
[13] = test system: CCRF-CEM; assay: Effect on growth of human CCRF-CEM cells at 40 nM in presence of 10 uM deoxycytidine, 10 uM hypoxanthine relative to control; type: functional
[14] = test system: CCRF-CEM; assay: Effect on growth of human CCRF-CEM cells at 40 nM in presence of 10 uM deoxycytidine, 5 uM thymidine and 10 uM hypoxanthine relative to control; type: functional
[15] = test system: CCRF-CEM; assay: Cytotoxicity against CCRF-CEM cells; type: functional; settings: Homo sapiens
[16] = test system: K562; assay: Cytotoxicity against K562 cells; type: functional; settings: Homo sapiens
[17] = test system: MOLT-4; assay: Cytotoxicity against MOLT4 cells; type: functional; settings: Homo sapiens
[18] = test system: RPMI-8226; assay: Cytotoxicity against RPMI8226 cells; type: functional; settings: Homo sapiens
[19] = test system: SR; assay: Cytotoxicity against SR cells; type: functional; settings: Homo sapiens
[20] = test system: NCI-H460; assay: Cytotoxicity against NCI-H460 cells; type: functional; settings: Homo sapiens
[21] = test system: HT-29; assay: Cytotoxicity against HT29 cells; type: functional; settings: Homo sapiens
[22] = test system: SW-620; assay: Cytotoxicity against SW620 cells; type: functional; settings: Homo sapiens
[23] = test system: U-251; assay: Cytotoxicity against U251 cells; type: functional; settings: Homo sapiens
[24] = test system: LOX IMVI; assay: Cytotoxicity against LOX IMVI cells; type: functional; settings: Homo sapiens
[25] = test system: PC-3; assay: Cytotoxicity against PC3 cells; type: functional; settings: Homo sapiens

| SMILES | IC50 [2] [µM] | Ratio IC50 [3] | Ratio IC50 [4] | Ratio IC50 [5] | IC50 [6] [µM] | IC50 [7] [µM] | IC50 [8] [µM] | IC50 [9] [µM] | IC50 [10] [µM] | also measured |
| --- | --- | --- | --- | --- | --- | --- | --- | --- | --- | --- |
| CCc1c(Sc2cccc(OC)c2)[nH]c2nc(N)nc(N)c12 | 0.32 | > 100 | 1.1 | 40.5 | > 32 | 28.3 | 1.09 | 0.77 | 31 | inhibition [1]: 35% |
| CCc1c(Sc2ccccc2)[nH]c2nc(N)nc(N)c12 | – | – | – | – | 18 | – | 0.18 | – | – | – |
| CN(Cc1cnc2nc(N)nc(N)c2n1)c1ccc(C(=O)N[C@@H](CCC(=O)O)C(=O)O)cc1 [METHOTREXATE] | – | – | – | – | – | – | – | – | – | Activity [11]: 11%; Activity [12]: 13%; Activity [13]: 14%; Activity [14]: 74% |
| CCc1c(Sc2ccc(Br)cc2)[nH]c2nc(N)nc(N)c12 | 0.14 | 19.3 | 0.4 | 1.4 | 2.7 | 26.6 | 11.6 | 7.4 | 10.1 | – |
| Cc1nc(N)c2c(C)c(Sc3ccc(C(=O)N[C@@H](CCC(=O)O)C(=O)O)cc3)[nH]c2n1 | – | – | – | – | – | – | – | – | – | GI50 [15]: 0.22 µM; GI50 [16]: 0.027 µM; GI50 [17]: < 0.01 µM; GI50 [18]: < 0.01 µM; GI50 [19]: > 0.1 µM; GI50 [20]: 0.63 µM; GI50 [21]: 0.16 µM; GI50 [22]: 0.12 µM; GI50 [23]: 0.82 µM; GI50 [24]: 0.17 µM; GI50 [25]: 0.44 µM |
| CCc1c(Sc2cccc3ccccc23)[nH]c2nc(N)nc(N)c12 | – | – | – | – | 2.9 | 18.4 | 3.15 | 19.8 | 40.1 | – |
| CCc1c(Sc2ccc(Cl)cc2Cl)[nH]c2nc(N)nc(N)c12 | 0.14 | 10 | 0.2 | 3.3 | 1.4 | 7.19 | 0.22 | 0.35 | 1.17 | – |
| CCc1c(Sc2ccc3ccccc3c2)[nH]c2nc(N)nc(N)c12 | – | – | – | – | 6 | 13.9 | 5.12 | 6.52 | 8.62 | – |
| CCc1c(Sc2cccc(Cl)c2)[nH]c2nc(N)nc(N)c12 | 0.16 | > 194 | 1.6 | 15.1 | > 31 | 4.02 | 0.5 | 0.42 | 6.33 | inhibition [1]: 30% |
| CCc1c(Sc2ccc([N+](=O)[O-])cc2)[nH]c2nc(N)nc(N)c12 | 0.09 | 64.4 | 0.4 | 8.6 | 5.8 | 8.68 | 0.32 | 0.37 | 3.2 | – |
